Reference: patent EP1137645B1, “ALPHA-METHYLBENZYL-CONTAINING THIOUREA INHIBITORS OF HERPES VIRUSES CONTAINING A […] GROUP” (Wyeth, priority 1998, dated 2000)
Converted amounts (≈) assume the structure as drawn. Read-outs that look alike come from different tables or passages of the source.

Columns and labels:
[1] = system: HCMV recombinant mutant virus whose genome contains the prokaryotic beta-glucuronidase gene; test: microbe, parasite or virus in culture; format: cell-based, human cytomegalovirus; settings: Human betaherpesvirus 5, Fibroblast
In short: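 Antiviral IC50 estimated from reduced reporter activity across compound amounts: lysates prepared 96 h after infection were tested with p-nitrophenyl- or methylumbelliferyl-glucuronide. Cells were human foreskin fibroblasts, infected alongside inhibitor with HCMV (e.g. RV145) expressing viral promoter-driven beta-glucuronidase.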

HSV- I = test: HSV antiviral (ELISA) assay; format: cell-based; settings: read-out: IC50 (ug/ml) HSV
In short: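 IC50 from fluorescence versus untreated control in a cell ELISA: anti-glycoprotein D antibody, β-galactosidase-conjugated secondary, 4-methyl umbelliferone read at 365/450 nm. Vero cells (2% FBS DMEM) received compound 30 min pre-infection with HSV-1 at MOI 0.006, fixed ~24 h post-infection.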

VZV strain Ellen = test: VZV antiviral (ELISA) assay; format: cell-based
In short: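 HFF cells infected with VZV Ellen at multiplicity below 0.1 overnight, then mixed infected/uninfected cells seeded with compound in DMEM/2% FBS and incubated three days at 37°C, 5% CO2.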

[2] = read-out: IC50 ug/ml HCMV, HCMV, human foreskin fibroblasts
[3] = Human alphaherpesvirus 3, HFF, read-out: IC50 (ug/ml) VZV
[4] = Human alphaherpesvirus 3, HFF, read-out: IC50 (ug/ml) VZV, VZV strain Ellen, HFF cells, ELISA
[5] = Human alphaherpesvirus 3, VZV strain Ellen, HFF cells, ELISA, read-out: IC50 (ug/ml) VZV

SMILES	IC50 [1, 2] [µg/mL]	IC50 (HSV- I; HSV- I, Vero cells, ELISA) [µg/mL]	IC50 (VZV strain Ellen; [3]) [µg/mL]	IC50 (HSV- I; Vero) [µg/mL]	IC50 (VZV strain Ellen; [4]) [µg/mL]	IC50 ([1]; read-out: IC50 ug/ml HCMV) [µg/mL]	IC50 (VZV strain Ellen; [5]) [µg/mL]
CC(NC(=S)Nc1ccc(NC(=O)c2cc3ccccc3o2)cc1)c1ccc(Br)cc1 (stereo not drawn) [Example 982, Benzofuran-2-carboxylic acid (4-{3-[1-(4-bromo-phenyl)-ethyl]-thioureido}-phenyl)-amide]	1.3 (≈ 2.63 µM)	> 10	0.1 (≈ 0.202 µM)				
CC(NC(=S)Nc1ccc(NC(=O)c2cc3ccccc3o2)cc1)c1ccc(C#N)cc1 (stereo not drawn) [Example 983, Benzofuran-2-carboxylic acid (4-{3-[1-(4-cyano-phenyl)-ethyl]-thioureido}-phenyl)-amide]	1.1 (≈ 2.5 µM)	> 10	0.6 (≈ 1.36 µM)				
CC(NC(=S)Nc1ccc(NC(=O)c2cc3ccccc3cn2)cc1)c1cc2ccccc2o1 (stereo not drawn) [Example 985, Isoquinoline-3-carboxylic acid {4-[3-(1-benzofuran-2-yl-ethyl)-thioureido]-phenyl}-amide]	> 10			> 10	0.035 (≈ 0.075 µM)		
CC(NC(=S)Nc1ccc(NC(=O)c2cc3ccccc3cn2)cc1)c1ccc(C#N)cc1 (stereo not drawn) [Example 986, Isoquinoline-3-carboxylic acid (4-{3-[1-(4-cyano-phenyl)-ethyl]-thioureido}-phenyl)-amide]	5.2 (≈ 11.5 µM)			> 10	0.05 (≈ 0.111 µM)		
CC(NC(=S)Nc1ccc(NC(=O)c2cc3ccccc3cn2)cc1)c1ccc(Br)cc1 (stereo not drawn) [Example 987, Isoquinoline-3-carboxylic acid (4-{3-[1-(4-bromo-phenyl)-ethyl]-thioureido}-phenyl)-amide]	1.5 (≈ 2.97 µM)			3 (≈ 5.94 µM)	0.046 (≈ 0.091 µM)		
CC(NC(=S)Nc1ccc(NC(=O)c2cnc3ccccc3c2)cc1)c1ccc(F)cc1 (stereo not drawn) [Example 988, Quinoline-3-carboxylic acid (4-{3-[1-(4-fluoro-phenyl)-ethyl]-thioureido}-phenyl)-amide]	> 10	> 10	3.4 (≈ 7.65 µM)				
CC(NC(=S)Nc1ccc(NC(=O)c2ccnc3ccccc23)cc1)c1ccc(F)cc1 (stereo not drawn) [Example 989, Quinoline-4-carboxylic acid (4-{3-[1-(4-fluoro-phenyl)-ethyl]-thioureido}-phenyl)-amide]	2.9 (≈ 6.52 µM)	4.1 (≈ 9.22 µM)	3 (≈ 6.75 µM)				
CC(NC(=S)Nc1ccc(NC(=O)c2ccc3ncccc3c2)cc1)c1ccc(F)cc1 (stereo not drawn) [Example 990, Quinoline-6-carboxylic acid (4-{3-[1-(4-fluoro-phenyl)-ethyl]-thioureido}-phenyl)-amide]	4.4 (≈ 9.9 µM)	8.9 (≈ 20 µM)	3.5 (≈ 7.87 µM)				
CC(NC(=S)Nc1ccc(NC(=O)c2cccc3cccnc23)cc1)c1ccc(F)cc1 (stereo not drawn) [Example 991, Quinoline-8-carboxylic acid (4-{3-[1-(4-fluoro-phenyl)-ethyl]-thioureido}-phenyl)-amide]	7.4 (≈ 16.6 µM)	> 10	0.1 (≈ 0.225 µM)				
CC(C)COc1ccc(NC(=S)Nc2ccc(NC(=O)c3ccccc3F)cc2)cc1Cl [Example 994, N-{4-[3-(3-Chloro-4-isobutoxy-phenyl)-thioureido]-phenyl}-2-fluoro-benzamide]	> 10			> 10	> 10		
COc1ccc(NC(=S)Nc2ccc(NC(=O)c3ccccc3F)cc2)cc1F [Example 995, 2-Fluoro-N-{4-[3-(3-fluoro-4-methoxy-phenyl)-thioureido]-phenyl}-benzamide]		> 10				> 10	> 10
COCCOc1ccc(NC(=S)Nc2ccc(NC(=O)c3ccccc3F)cc2)cc1Cl [Example 996, N-(4-{3-[3-Chloro-4-(2-methoxy-ethoxy)-phenyl]-thioureido}-phenyl)-2-fluoro-benzamide]	> 10			> 10	10 (≈ 21.1 µM)		
Cc1ccc(NC(=S)Nc2ccc(NC(=O)c3ccccc3F)cc2)cc1F [Example 997, 2-Fluoro-N-{4-[3-(3-fluoro-4-methyl-phenyl)-thioureido]-phenyl}-benzamide]		1.9 (≈ 4.78 µM)				4 (≈ 10.1 µM)	> 10
COc1ccc(NC(=S)Nc2ccc(NC(=O)c3ccccc3F)cc2)cc1C(F)(F)F [Example 998, 2-Fluoro-N-{4-[3-(4-methoxy-3-trifluoromethyl-phenyl)-thioureido]-phenyl}-benzamide]		3 (≈ 6.47 µM)				> 10	5 (≈ 10.8 µM)
Nc1ccc(C(F)(F)F)cc1NC(=S)Nc1ccc(NC(=O)c2ccccc2F)cc1 [Example 999, N-{4-[3-(2-Amino-5-trifluoromethyl-phenyl)-thioureido]-phenyl}-2-fluoro-benzamide]		2.2 (≈ 4.91 µM)				4 (≈ 8.92 µM)	9.4 (≈ 21 µM)
COc1ccc(C(C)NC(=S)Nc2ccc(NC(=O)c3ccccc3F)cc2)cc1Cl (stereo not drawn) [Example 1000, N-(4-{3-[1-(3-Chloro-4-methoxy-phenyl)-ethyl]-thioureido}-phenyl)-2-fluoro-benzamide]	2 (≈ 4.37 µM)			> 10	6 (≈ 13.1 µM)		
O=C(Nc1ccc(NC(=S)Nc2cc(Cl)ccc2O)cc1)c1ccccc1F [Example 1001, N-{4-[3-(5-Chloro-2-hydroxy-phenyl)-thioureido]-phenyl}-2-fluoro-benzamide]	2.6 (≈ 6.25 µM)			4.3 (≈ 10.3 µM)	3.6 (≈ 8.66 µM)		
CC(NC(=S)Nc1ccc(NC(=O)c2ccccc2F)cc1)c1cc2ccccc2o1 (stereo not drawn) [Example 1002, N-{4-[3-(1-Benzofuran-2-yl-ethyl)-thioureido]-phenyl}-2-fluoro-benzamide]	2.1 (≈ 4.84 µM)			> 10	0.08 (≈ 0.185 µM)		
Cc1ccc(NC(=S)Nc2ccc(NC(=O)c3ccccc3F)cc2)cc1C(F)(F)F [Example 1003, 2-Fluoro-N-{4-[3-(4-methyl-3-trifluoromethyl-phenyl)-thioureido]-phenyl}-benzamide]		> 10				> 10	> 10
C[C@H](NC(=S)Nc1ccc(NC(=O)c2ccccc2F)cc1)c1ccc(Br)cc1 [Example 1004, (S)-N-(4-{3-[1-(4-Bromo-phenyl)-ethyl]-thioureido}-phenyl)-2-fluoro-benzamide]	4.2 (≈ 8.89 µM)			> 10	0.06 (≈ 0.127 µM)		
COc1cc(OCC(F)(F)F)ccc1NC(=S)Nc1ccc(NC(=O)c2ccccc2F)cc1 [Example 1006, 2-Fluoro-N-(4-{3-[2-methoxy-4-(2,2,2-trifluoro-ethoxy)-phenyl]-thioureido}-phenyl)-benzamide]		8.3 (≈ 16.8 µM)				8.9 (≈ 18 µM)	11 (≈ 22.3 µM)
Nc1ccc(F)cc1NC(=S)Nc1ccc(NC(=O)c2ccccc2F)cc1 [Example 1007, N-{4-[3-(2-Amino-5-fluoro-phenyl)-thioureido]-phenyl}-2-fluoro-benzamide]		1.2 (≈ 3.01 µM)				> 10	> 10
CC(NC(=S)Nc1ccc(NC(=O)c2ccccc2F)cc1)c1ccc(S(=O)(=O)N(C)C)cc1 (stereo not drawn) [Example 1008, N-(4-{3-[1-(4-Dimethylsulfamoyl-phenyl)-ethyl]-thioureido}-phenyl)-2-fluoro-benzamide]	8.5 (≈ 17 µM)			> 10	> 10		
CC(NC(=S)Nc1ccc(NC(=O)c2ccccc2F)cc1)c1ccc(S(=O)(=O)N2CCCCC2)cc1 (stereo not drawn) [Example 1009, 2-Fluoro-N-[4-(3-{1-[4-(piperidine-1-sulfonyl)-phenyl]-ethyl}-thioureido)-phenyl]-benzamide]	> 10			> 10	> 10		
